Here are results for three molecules from ChEMBL document CHEMBL3124838, “Discovery of 6-aryl-azabenzimidazoles that inhibit the TBK1/IKK-ε kinases” (Bioorg Med Chem Lett, 2014).

Structures are written as SMILES.

Assay [1] has as its target Tyrosine-protein kinase ABL1 (Homo sapiens) (UniProt P00519). Description: Inhibition of human ABL assessed as residual activity at 1 uM relative to control.
The target in assay [2] is RAC-beta serine/threonine-protein kinase (Homo sapiens) (UniProt P31751). Description: Inhibition of human PKBbeta assessed as residual activity at 1 uM relative to control.
The target of assay [3] is Rho-associated protein kinase 1 (Homo sapiens) (UniProt Q13464). In words: Inhibition of human ROCK-1 assessed as residual activity at 1 uM relative to control.
Assay [4] deals with Insulin receptor (Homo sapiens) (UniProt P06213). Description: Inhibition of human activated IR assessed as residual activity at 1 uM relative to control.
In assay [5] the target is 3-phosphoinositide-dependent protein kinase 1 (Homo sapiens) (UniProt O15530). Description: Inhibition of human PDK1 assessed as residual activity at 1 uM relative to control.
For assay [6], the target named is Serine/threonine-protein kinase PAK 5 (Homo sapiens) (UniProt Q9P286). In words: Inhibition of human PAK5 assessed as residual activity at 1 uM relative to control.
Assay [7] has as its target T1, Eukaryotic elongation factor 2 kinase (Homo sapiens) (UniProt O00418).
T1 sequence (whole entry): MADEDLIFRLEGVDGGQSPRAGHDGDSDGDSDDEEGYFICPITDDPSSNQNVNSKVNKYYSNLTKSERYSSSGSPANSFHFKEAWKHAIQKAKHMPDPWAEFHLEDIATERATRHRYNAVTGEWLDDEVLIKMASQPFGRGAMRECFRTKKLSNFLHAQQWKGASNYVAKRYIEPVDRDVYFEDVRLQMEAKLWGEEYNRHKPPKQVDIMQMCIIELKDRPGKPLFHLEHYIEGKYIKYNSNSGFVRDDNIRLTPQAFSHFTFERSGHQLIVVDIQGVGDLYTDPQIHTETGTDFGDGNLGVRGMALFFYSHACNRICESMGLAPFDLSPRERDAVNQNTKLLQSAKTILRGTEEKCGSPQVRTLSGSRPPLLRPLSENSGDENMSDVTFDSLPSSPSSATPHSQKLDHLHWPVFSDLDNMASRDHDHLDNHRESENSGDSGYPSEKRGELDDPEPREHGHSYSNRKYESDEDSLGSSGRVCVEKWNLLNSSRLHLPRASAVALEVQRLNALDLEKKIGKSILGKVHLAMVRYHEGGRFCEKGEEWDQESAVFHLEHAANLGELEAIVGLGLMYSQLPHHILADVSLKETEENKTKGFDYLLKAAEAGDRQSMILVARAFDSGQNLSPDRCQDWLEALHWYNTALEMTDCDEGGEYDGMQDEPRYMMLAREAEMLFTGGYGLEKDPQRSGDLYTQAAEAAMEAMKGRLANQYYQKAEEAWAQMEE
In words: Inhibition of human eEF-2K assessed as residual activity at 1 uM relative to control.

For assay [8], the target named is T2, Cytoplasmic tyrosine-protein kinase BMX (Homo sapiens) (UniProt P51813).
T2 sequence (whole entry): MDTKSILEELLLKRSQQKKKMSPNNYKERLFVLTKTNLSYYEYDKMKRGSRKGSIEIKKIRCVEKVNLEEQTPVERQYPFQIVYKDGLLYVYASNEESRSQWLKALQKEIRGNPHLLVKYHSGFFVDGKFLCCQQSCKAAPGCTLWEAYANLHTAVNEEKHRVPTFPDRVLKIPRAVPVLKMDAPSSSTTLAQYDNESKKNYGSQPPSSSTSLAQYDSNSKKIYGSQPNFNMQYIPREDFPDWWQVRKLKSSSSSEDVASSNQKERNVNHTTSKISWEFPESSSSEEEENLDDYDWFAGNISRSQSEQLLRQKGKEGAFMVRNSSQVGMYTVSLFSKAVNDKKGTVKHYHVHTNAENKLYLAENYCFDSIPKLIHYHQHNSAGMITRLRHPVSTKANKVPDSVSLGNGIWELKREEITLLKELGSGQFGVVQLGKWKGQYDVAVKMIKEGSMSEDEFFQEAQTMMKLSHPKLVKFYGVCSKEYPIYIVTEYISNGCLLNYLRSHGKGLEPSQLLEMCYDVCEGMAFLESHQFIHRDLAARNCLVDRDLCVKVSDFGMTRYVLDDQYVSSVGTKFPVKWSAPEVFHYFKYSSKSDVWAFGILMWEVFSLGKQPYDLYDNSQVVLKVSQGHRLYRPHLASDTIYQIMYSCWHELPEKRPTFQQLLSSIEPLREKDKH
Description: Inhibition of human BMX assessed as residual activity at 1 uM relative to control.

Assay [9] has as its target Receptor tyrosine-protein kinase erbB-4 (Homo sapiens) (UniProt Q15303). In words: Inhibition of human ERBB4 assessed as residual activity at 1 uM relative to control.
For assay [10], the target named is CDK7/Cyclin H/MNAT1 (Homo sapiens) (UniProt P51946+P50613+P51948). Description: Inhibition of human CDK7/cyclin H/MAT1 assessed as residual activity at 1 uM relative to control. In kind it is protein-complex assay.
For assay [11], the target named is Calcium/calmodulin-dependent protein kinase type II subunit beta (Homo sapiens) (UniProt Q13554). In words: Inhibition of human CaMK2beta assessed as residual activity at 1 uM relative to control.
For assay [12], the target named is Insulin receptor (Homo sapiens) (UniProt P06213). In words: Inhibition of human IR assessed as residual activity at 1 uM relative to control.
Assay [13] addresses Proto-oncogene tyrosine-protein kinase Src (Homo sapiens) (UniProt P12931). In words: Inhibition of human SRC (1 to 530) assessed as residual activity at 1 uM relative to control.
Assay [14] addresses Serine/threonine-protein kinase PAK 1 (Homo sapiens) (UniProt Q13153). In words: Inhibition of human PAK1 assessed as residual activity at 1 uM relative to control.
Assay [15] deals with Tyrosine-protein kinase Lck (Homo sapiens) (UniProt P06239). In words: Inhibition of human activated LCK assessed as residual activity at 1 uM relative to control.

Chain of Insulin receptor (Homo sapiens) (P06213 28-758 limits assumed): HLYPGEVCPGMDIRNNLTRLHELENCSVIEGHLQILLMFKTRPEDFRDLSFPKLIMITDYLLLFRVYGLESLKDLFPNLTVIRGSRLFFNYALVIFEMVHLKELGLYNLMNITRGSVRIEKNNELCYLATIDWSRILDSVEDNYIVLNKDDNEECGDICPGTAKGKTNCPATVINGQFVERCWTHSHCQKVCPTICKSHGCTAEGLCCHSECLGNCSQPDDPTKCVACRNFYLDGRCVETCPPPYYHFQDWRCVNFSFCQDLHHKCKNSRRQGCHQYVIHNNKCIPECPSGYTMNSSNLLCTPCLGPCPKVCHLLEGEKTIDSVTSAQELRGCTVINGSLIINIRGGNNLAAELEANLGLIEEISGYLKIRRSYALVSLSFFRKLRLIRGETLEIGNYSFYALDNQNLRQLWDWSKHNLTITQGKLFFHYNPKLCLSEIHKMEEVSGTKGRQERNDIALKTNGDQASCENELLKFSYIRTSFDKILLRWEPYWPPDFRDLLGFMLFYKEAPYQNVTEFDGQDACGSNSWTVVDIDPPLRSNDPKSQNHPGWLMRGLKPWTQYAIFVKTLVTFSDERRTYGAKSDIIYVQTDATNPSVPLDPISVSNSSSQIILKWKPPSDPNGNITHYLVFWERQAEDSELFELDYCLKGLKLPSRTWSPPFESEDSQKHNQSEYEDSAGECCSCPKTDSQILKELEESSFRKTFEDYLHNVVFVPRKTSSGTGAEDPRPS
Chain of Insulin receptor (Homo sapiens) (P06213 763-1382 limits assumed): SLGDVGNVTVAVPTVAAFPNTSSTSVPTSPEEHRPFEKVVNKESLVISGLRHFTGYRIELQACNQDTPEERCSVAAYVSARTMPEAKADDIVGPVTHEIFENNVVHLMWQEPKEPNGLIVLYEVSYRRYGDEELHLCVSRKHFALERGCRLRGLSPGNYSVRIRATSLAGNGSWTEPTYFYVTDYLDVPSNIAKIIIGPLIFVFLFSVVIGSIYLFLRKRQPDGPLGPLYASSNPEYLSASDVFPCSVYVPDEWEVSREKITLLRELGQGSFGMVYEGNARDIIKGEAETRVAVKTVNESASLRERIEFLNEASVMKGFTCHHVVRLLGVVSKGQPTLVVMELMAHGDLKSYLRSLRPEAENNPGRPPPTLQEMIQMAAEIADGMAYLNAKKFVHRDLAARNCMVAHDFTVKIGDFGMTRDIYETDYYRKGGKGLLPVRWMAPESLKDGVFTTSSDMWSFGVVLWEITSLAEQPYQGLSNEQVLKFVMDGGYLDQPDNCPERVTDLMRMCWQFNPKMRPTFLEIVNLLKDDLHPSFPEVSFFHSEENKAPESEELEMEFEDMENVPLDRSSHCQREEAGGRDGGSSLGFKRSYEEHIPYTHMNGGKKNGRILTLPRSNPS
Chain of Calcium/calmodulin-dependent protein kinase type II subunit beta (Homo sapiens) (Q13554 whole entry): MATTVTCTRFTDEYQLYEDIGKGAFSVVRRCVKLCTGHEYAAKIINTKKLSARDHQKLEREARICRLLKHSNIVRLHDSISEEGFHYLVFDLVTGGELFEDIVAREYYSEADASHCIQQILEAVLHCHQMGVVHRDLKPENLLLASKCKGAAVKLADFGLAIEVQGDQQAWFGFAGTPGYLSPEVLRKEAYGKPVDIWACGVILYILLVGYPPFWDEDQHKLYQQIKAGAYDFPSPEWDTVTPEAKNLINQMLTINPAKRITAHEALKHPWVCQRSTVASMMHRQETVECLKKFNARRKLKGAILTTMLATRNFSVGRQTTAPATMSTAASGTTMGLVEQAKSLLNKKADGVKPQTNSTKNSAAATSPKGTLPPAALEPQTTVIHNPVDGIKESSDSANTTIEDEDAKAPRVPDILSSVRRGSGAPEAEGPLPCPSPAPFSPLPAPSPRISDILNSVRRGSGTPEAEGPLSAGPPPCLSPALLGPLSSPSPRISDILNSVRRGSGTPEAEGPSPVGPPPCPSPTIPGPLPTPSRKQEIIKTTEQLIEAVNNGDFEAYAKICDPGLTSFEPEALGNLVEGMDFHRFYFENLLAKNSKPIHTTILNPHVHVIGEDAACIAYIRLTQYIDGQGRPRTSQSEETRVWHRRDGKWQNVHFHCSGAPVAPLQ
Chain of 3-phosphoinositide-dependent protein kinase 1 (Homo sapiens) (O15530 whole entry, looked up): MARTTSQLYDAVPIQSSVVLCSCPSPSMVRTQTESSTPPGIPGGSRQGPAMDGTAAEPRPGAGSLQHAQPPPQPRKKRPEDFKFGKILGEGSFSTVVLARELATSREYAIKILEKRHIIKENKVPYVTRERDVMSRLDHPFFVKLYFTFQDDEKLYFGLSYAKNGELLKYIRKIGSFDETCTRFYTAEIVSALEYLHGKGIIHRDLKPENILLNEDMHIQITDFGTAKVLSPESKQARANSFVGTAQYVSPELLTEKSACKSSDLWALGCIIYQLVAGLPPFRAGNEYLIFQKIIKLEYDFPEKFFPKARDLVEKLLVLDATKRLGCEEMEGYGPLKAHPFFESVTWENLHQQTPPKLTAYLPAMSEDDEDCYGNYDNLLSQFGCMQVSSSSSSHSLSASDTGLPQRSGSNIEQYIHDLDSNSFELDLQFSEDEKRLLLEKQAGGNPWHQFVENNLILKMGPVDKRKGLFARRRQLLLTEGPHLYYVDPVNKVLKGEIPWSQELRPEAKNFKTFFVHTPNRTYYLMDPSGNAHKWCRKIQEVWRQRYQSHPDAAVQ
Chain of Rho-associated protein kinase 1 (Homo sapiens) (Q13464 2-1354 limits assumed): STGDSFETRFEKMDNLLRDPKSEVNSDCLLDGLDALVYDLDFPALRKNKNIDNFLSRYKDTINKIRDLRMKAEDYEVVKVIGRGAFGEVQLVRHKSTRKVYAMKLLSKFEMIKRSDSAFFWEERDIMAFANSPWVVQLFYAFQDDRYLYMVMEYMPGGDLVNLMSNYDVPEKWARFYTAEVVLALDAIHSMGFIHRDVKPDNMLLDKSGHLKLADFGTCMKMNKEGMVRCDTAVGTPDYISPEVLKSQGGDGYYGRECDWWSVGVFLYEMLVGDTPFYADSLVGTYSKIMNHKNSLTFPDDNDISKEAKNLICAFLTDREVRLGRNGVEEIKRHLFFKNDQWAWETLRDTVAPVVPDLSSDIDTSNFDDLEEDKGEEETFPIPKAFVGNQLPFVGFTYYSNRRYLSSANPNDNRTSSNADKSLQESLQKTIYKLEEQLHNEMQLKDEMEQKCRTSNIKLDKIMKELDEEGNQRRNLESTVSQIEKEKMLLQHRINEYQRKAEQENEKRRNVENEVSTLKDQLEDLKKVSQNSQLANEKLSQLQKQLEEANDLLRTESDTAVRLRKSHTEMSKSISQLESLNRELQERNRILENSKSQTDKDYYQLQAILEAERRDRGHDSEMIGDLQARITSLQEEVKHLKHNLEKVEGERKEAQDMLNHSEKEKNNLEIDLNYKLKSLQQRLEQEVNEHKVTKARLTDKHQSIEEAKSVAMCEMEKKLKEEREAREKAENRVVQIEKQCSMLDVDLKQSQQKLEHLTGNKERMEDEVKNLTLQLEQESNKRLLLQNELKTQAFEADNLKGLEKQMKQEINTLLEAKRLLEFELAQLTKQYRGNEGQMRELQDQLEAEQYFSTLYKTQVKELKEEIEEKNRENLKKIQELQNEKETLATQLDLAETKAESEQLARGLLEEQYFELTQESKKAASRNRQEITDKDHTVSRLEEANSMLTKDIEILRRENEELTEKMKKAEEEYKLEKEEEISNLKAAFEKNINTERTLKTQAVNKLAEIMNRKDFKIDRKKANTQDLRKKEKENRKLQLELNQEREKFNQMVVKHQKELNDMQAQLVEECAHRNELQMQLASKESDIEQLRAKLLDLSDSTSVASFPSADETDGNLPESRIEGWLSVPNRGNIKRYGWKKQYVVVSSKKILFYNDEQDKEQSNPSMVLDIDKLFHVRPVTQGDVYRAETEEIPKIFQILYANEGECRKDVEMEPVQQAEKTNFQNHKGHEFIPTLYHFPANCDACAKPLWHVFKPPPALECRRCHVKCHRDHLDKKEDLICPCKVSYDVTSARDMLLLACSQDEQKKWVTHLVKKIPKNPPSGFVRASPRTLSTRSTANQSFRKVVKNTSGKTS
Chain of Tyrosine-protein kinase ABL1 (Homo sapiens) (P00519 whole entry): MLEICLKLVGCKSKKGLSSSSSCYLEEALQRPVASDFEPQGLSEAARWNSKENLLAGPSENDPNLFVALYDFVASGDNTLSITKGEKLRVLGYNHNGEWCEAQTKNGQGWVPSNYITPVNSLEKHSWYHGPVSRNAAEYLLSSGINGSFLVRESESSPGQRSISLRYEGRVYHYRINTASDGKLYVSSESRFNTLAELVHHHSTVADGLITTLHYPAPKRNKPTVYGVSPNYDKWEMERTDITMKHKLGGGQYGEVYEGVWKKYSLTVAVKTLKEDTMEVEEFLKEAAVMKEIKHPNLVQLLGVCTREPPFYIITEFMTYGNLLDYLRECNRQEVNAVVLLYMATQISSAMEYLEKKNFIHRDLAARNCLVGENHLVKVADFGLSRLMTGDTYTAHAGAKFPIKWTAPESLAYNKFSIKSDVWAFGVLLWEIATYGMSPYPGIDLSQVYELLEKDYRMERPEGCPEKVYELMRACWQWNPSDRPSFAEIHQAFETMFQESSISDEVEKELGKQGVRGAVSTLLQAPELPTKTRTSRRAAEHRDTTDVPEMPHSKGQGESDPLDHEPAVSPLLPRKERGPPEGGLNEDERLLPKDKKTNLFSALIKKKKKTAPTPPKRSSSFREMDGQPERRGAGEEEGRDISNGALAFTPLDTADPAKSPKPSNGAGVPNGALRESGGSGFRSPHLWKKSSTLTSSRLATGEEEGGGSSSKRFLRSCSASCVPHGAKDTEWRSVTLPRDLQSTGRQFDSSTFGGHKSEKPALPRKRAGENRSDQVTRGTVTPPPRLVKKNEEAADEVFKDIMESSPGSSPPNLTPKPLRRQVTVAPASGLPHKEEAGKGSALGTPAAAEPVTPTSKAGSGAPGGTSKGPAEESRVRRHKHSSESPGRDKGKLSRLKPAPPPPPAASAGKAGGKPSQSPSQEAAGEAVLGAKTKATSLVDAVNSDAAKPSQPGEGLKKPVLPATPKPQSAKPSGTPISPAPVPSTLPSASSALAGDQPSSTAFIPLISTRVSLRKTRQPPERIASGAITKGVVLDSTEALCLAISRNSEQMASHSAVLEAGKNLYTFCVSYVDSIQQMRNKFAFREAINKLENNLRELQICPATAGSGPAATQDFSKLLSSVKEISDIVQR

On to `COc1ccc(-c2nc3cc(-c4csc(C(=O)NCC(C)(C)C)c4)cnc3[nH]2)cc1`, for which the Activity in assay [1] amounted to 8%; in [2] it was 90%; in assay [3] it was 104%; in assay [4], 96%; in assay [5] it was 85%; in assay [6], 94%. The Activity amounted to 91% in assay [7]; 100% in assay [8]; 91% in assay [9]; 100% in assay [10]; 98% in assay [11]; 92% in assay [12]. For the same molecule, the Activity in assay [13] came to 47%; in assay [14], 94%; in assay [15] it was 71%.

In the case of `COc1ccc(-c2nc3cc(-c4csc(C(=O)NCCC(C)C)c4)cnc3[nH]2)cc1`, the Activity turned out to be 10% in assay [1]; 93% in [2]; 98% in assay [3]; 100% in assay [4]; 80% in [5]; 86% in [6]. Moreover, the Activity came out at 101% in assay [7]; 105% in assay [8]; 93% in assay [9]; 95% in assay [10]; 97% in [11]; 80% in [12]. Besides, the Activity in [13] was found to be 23%; in assay [14], 96%; in assay [15] it was 47%.

Consider `COc1ccc(-c2nc3cc(-c4csc(C(=O)NCC(C)C)c4)cnc3[nH]2)cc1`, for which the Activity in [1] is -2%; in assay [2], 98%; in [3] it was 113%; in assay [4] it was 109%; in assay [5], 91%; in assay [6], 97%. In addition, the Activity in [7] was determined as 102%; in assay [8], 92%; in [9] it was 98%; in assay [10], 91%; in assay [11], 96%; in [12], 102%. Moreover, the Activity in [13] stood at 25%; in [14] it was 105%; in [15] it was 56%.
